Source: patent US20240336604A1 (THE UNITED STATES OF AMERICA, AS REPRESENTED BY THE …, priority 2021, published 2024)
“And” between values parts separate entries of the source, which are not always exact repeats. Identical values can stand only once.

Key:
D3 DAR [1] = target: T1, D3 DAR (Homo sapiens, UniProt P35462); assay: Go BRET activation assay, D3 DAR; type: cell-based; details: EC80 DA (30 nM)
Procedure: Briefly, HEK293T cells transiently expressing either the D2 DAR or D3 DAR and GαoA-Rluc8, untagged-β1, and mVenus-γ2 were harvested with EBSS, plated in 96-well white plates at 20,000 cells/well in DPBS and incubated at RT for 45 min. […] BRET signal was determined by quantifying and calculating the ratio of the light emitted by mVenus (525 nm) over that emitted by RLuc8 (485 nm) using a PHERAstar FSX Microplate Reader (BMG Labtech).

[2] = Mouse plasma and brain pharmacokinetic study; type: in vivo; details: male CD1 mice, single 40 mg/kg i.p.
Procedure: Mouse Plasma and Brain Tissue Sampling: The pharmacokinetic study was conducted by CRO Pharmaron (Beijing, China). The levels of cmp 17 in mouse plasma and brain tissue samples were assessed as follows. A single IP dose (40 mg/kg) of cmp 17 was administered to male CD1 mice. The formulation consisted of NMP/Solutol/PEG-400/normal saline (v/v/v/v, 10:5:30:55). Plasma and brain samples were collected 0.5 h, 1 h, 2 h, 4 h and 8 h post dose. Brain samples were homogenized at a ratio of 1:3 with PBS (W/V, 1:3). The desired serial concentrations of working solutions were achieved by diluting stock solution of analyte with 50% acetonitrile in water solution. 10 μL of working solutions (0.5, 1, 2, 5, 10, 50, 100, 500, 1000, 10000 ng/mL) were added to 10 μL of the blank CD1 mouse plasma/brain homogenate to achieve calibration standards of 0.5-10000 ng/mL (0.5, 1, 2, 5, 10, 50, 100, 500, 1000, 10000 ng/mL) in a total volume of 20 μL. Five quality control samples at 1 ng/mL, 2 ng/mL, 5 ng/mL, 100 ng/mL and 8000 ng/mL for plasma/brain homogenate were prepared independently of those used for the calibration curves. […] After centrifugation at 4° C., 4700 rpm for 15 min, the supernatant was diluted at a ratio of 1:2 with water, and 10 μL of diluted supernatant was injected into the LC/MS/MS system (SCIEX AB API 4000) for quantitative analysis. […]

D3 DAR [3] = target: T1, D3 DAR; assay: DiscoverX D3 DAR β-arrestin recruitment assay; type: cell-based; design: host or cells: CHO; details: for Emax: Imax=maximum inhibition, EC80 DA (30 nM)
Excerpt: (§1) A D3 DAR β-arrestin cell line from DiscoverX (Fremont, CA) was used as described in the protocol below (Table 2). A CHO cell line engineered to overexpress the D3 DAR fused with a small 42-amino acid fragment of β-galactosidase called ProLink™ and a fusion protein consisting of β-arrestin and a larger N-terminal deletion mutant of β-galactosidase was used (DiscoverX catalogue number 93-0579C2). When the D3 DAR is activated by dopamine, it stimulates binding of β-arrestin to ProLink-tagged D3 DARs, and the two complementary parts of β-galactosidase form a functional enzyme. When substrate (PathHunter® Detection reagent, DiscoverX 93-0001) is added, β-galactosidase hydrolyzes it and generates a chemiluminescent signal.

D2 DAR = D2 DAR (Homo sapiens, UniProt P14416); assay: DiscoverX D2 DAR β-arrestin recruitment assay; type: cell-based; design: host or cells: CHO; details: for D2 DAR Imax / IC50: EC80 concentration of DA (1 μM); for antagonism of dopamine activation of the D2 DAR: DiscoverX β-arrestin assay, FIG. 2B
D2 DAR, sequence (P14416 whole entry, the tested form may be a part): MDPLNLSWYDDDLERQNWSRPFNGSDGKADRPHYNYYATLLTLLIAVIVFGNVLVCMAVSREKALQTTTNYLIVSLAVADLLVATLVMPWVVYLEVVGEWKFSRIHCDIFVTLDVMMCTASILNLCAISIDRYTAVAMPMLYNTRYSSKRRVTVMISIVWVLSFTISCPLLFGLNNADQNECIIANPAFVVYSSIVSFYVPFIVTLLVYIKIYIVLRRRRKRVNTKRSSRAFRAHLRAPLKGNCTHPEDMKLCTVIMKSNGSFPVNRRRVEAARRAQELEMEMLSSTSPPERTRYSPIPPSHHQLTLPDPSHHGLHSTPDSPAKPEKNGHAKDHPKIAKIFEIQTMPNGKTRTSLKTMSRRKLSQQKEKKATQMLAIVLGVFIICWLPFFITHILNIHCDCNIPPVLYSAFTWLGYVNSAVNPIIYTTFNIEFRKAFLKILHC
Excerpt: For a secondary-screen and selectivity assays, DAR PathHunter®-arrestin GPCR cell lines from DiscoverX (Fremont, CA) were used. In the D2 DAR PathHunter®-arrestin GPCR cell line, the D2 DAR is overexpressed and fused with a small 42-amino acid fragment of β-galactosidase called ProLink™ on a CHO cellular background expressing a fusion protein of β-arrestin and a larger N-terminal deletion mutant of β-galactosidase (“enzyme acceptor”). When the D2 DAR is activated by dopamine, it stimulates binding of β-arrestin to the ProLink-tagged DAR and the two complementary parts of β-galactosidase form a functional enzyme. When substrate (PathHunter™ Detection reagent) is added, β-galactosidase hydrolyzes it and generates a chemiluminescent signal.

D3 DAR [4] = target: T1, D3 DAR; assay: Functional curve-shift assays using the DiscoverX β-arrestin recruitment assay; type: cell-based; design: host or cells: CHO
Excerpt: To further assess the mechanism of action of Cmp. […] 1 (FIGS. 4B and 4D). […] Average curves are shown (mean±SEM from at least 3 experiments each performed in triplicate). […] In contrast, increasing concentrations of Cmp.
1. FIG. 6A-C panels show concentration-response curves of dopamine in the absence or presence of increasing concentrations of compound. Cmp. […] 18 (FIG. 6A), Cmp. 5 (FIG. 6B), and Cmp. 17 (FIG. 6C), respectively. Average curves are shown (mean±SEM from at least 3 experiments, each performed in triplicate).
as §1

D3 DAR [5] = target: T1, D3 DAR; assay: [3H]-methylspiperone radioligand binding assay; details: single high 40 μM concentration
Procedure: Compounds were tested for their ability to compete with the orthosteric radioligand [^3H]-methylspiperone for binding to the D3 DAR using HEK cells transiently transfected with the D3 DAR as described in the detailed protocol below presented in Table 5. Cells were cultured in Dulbecco's modified Eagle's Medium (Corning, catalogue no. 10-013) containing 10% FBS, 1,000 units/mL Penicillin, […] Streptomycin, 100 mM sodium pyruvate, 1 μg/mL Gentamicin, and […] G418. All cells were maintained at 37° C. in 5% CO2 and 90% humidity. For radioligand binding assays cells were removed mechanically using calcium-free Earle's balanced salt solution (EBSS). Intact cells were collected by centrifugation and then lysed with 5 mM Tris-HCl and 5 mM MgCl2 at pH 7.4. Homogenates were centrifuged at 30,000×g for 30 minutes. The membranes were re-suspended in EBSS (US Biological, catalogue no. E0249-05) pH 7.4 to a concentration of 16 μg/mL. For competition binding studies, membrane preparations were incubated for 90 minutes at room temperature with various concentrations of compound and a single concentration of [^3H]-methylspiperone (Perkin Elmer, NET856) in a reaction volume of […]. Non-specific binding was determined in the presence of 4 μM (+)-butaclamol (Sigma-Aldrich, catalogue no. D033). Bound ligand was separated from unbound by filtration through GF/C filters using a PerkinElmer cell harvester and quantified on a Top-count (PerkinElmer). Ki values were determined using Cheng-Prusoff equation from observed IC50 values and ligand Kd values from separate saturation experiments.

[6] = EC80 concentration of DA (30 nM), read-out: D3 DAR IC50
[7] = DiscoverX β-arrestin assay, FIG. 1A, 2A, read-out: IC50, inhibition of dopamine-stimulated β-arrestin recruitment to the D3 DAR

T1 sequence (P35462 whole entry): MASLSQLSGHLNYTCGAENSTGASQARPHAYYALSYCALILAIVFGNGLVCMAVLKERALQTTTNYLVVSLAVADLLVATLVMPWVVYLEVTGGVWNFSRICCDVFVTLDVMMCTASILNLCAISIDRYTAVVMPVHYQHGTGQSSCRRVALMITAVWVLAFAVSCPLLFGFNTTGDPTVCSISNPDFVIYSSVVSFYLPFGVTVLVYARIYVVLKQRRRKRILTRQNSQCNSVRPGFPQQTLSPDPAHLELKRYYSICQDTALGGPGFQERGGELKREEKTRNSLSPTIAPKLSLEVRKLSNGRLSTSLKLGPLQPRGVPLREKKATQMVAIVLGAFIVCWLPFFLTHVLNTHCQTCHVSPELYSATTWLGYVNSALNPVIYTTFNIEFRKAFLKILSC

SMILES	Emax (D3 DAR [1]; 5 min, read-out: D3 Go BRET Imax) [%]	brain penetration [2]	half-life ([2]; mouse, in vivo, ip) [min]	IC50 (D3 DAR [3]; [6]) [µM]	Emax (D3 DAR [3]) [%]	D2 DAR Imax (D2 DAR)	IC50 (D2 DAR) [µM]	IC50 (D3 DAR [4]; agonist dopamine, read-out: Functional IC50 for decreasing the Emax of dopamine) [nM]	mode of antagonism in curve-shift assays (D3 DAR [4]; versus agonist (dopamine, pramipexole))	inhibition of [3H]-methylspiperone binding to the D3 DAR (D3 DAR [5])	IC50 (D3 DAR [1]) [µM]	IC50 (D3 DAR [3]; [7])	antagonism of dopamine activation of the D2 DAR (D2 DAR)
Cc1[nH]c(C)c(S(=O)(=O)Nc2ccc(C(F)(F)F)c(Cl)c2)c1C(=O)N1CCC(F)(F)C1 [Cmp. 17, N-(3-chloro-4-(trifluoromethyl)phenyl)-4-(3,3-difluoropyrrolidine-1-carbonyl)-2,5-dimethyl-1H-pyrrole-3-sulfonamide]	> 100	brain penetrant	~240	< 10	80 to 100	NA (“NA” indicates not active)	> 100	1700	noncompetitive antagonism				
CCOC(=O)C1=NOC2(C1)C(=O)Nc1ccc(OC(F)(F)F)cc12 (racemic) [Cmp. 25, Ethyl 2-oxo-5-(trifluoromethoxy)-4′H-spiro[indoline-3,5′-isoxazole]-3′-carboxylate]				10 to 50	80 to 100	NA (“NA” indicates not active)	> 100			neither compound exhibited measurable ability to inhibit the binding	> 50	~13 µM and ~15 µM	lacks ability to antagonize dopamine activation
Cc1cccc(CNC(=O)c2sc(=O)n(Cc3c(C)cccc3C)c2C)c1 [Cmp. 26]				10 to 50	80 to 100	NA (“NA” indicates not active)	> 100			neither compound exhibited measurable ability to inhibit the binding		~30 µM	lacks ability to antagonize dopamine activation
